Results on 20 molecules are retold here after patent USRE29828E, “1-Substituted-3-amidopyrrolidines” (A. H. Robins Company, Inc., priority 1976, dated 1978).

For one assay, the system named is mice. Nature of the assay: animal or person. The class given is in vivo. The settings on record: Mus musculus, read-out: ED50 (dose effective in 50 percent of the treated mice), analgetic effect.
The test system of assay [1] is depressant action of tetrabenazine in mice. Nature of the assay: anti-depressant effect: antagonism of the depressant action of tetrabenazine in mice. The class given is in vivo. The settings on record: Mus musculus, read-out: ED50 (dose effective in 50 percent of the treated mice), anti-depressant effect.
Method: The anti-depressant effect of some compounds of this invention was assessed by their ability to antagonize the depressant action of tetrabenazine (2-oxo-3-isobutyl-9,10-dimethoxy- 1,2,3,4,6,7 -hexahydro-11bH-benzo[a]quinolizine) in mice [Englehardt et al. J. Med. Chem. 11 (2), 325 (1968)].

Counter-ions that a name gives are not always drawn. Like-named read-outs stand apart in the source and are kept apart here.

With `CCC(=O)O[C@](Cc1ccccc1)(c1ccccc1)[C@H](C)CN(C)C` [Darvon®, reference compound], in the assay with mice, the ED50 (commonly the dose that gives a 50% effect, or the effect in half of the subjects) was 11.2 mg/kg.
Regarding `CCOC(=O)C1(c2ccccc2)CCN(C)CC1` [Demerol®, reference compound], the ED50 in the assay on mice worked out at 6.4 mg/kg.
With `CN(C)CCC=C1c2ccccc2CCc2ccccc21` [Elavil®, reference compound], the ED50 in assay [1] (mice, antagonism of depressant action of tetrabenazine) amounted to 1.1 mg/kg.
Regarding `CCC(=O)N(c1ccccc1OC)C1CCN(CCOc2ccccc2)C1` (stereo not drawn) [Example 4, 1-(2-phenoxethyl)-3-[N-(2-methoxyphenyl)propionamido]pyrrolidine], in the assay with mice, the ED50 stood at 6.8 mg/kg.
Still for that read-out and setting: with `C=CCN1CCC(N(C(=O)CC)c2ccccc2)C1` (stereo not drawn) [Example 5] the figure was 8 mg/kg.
`CN1CCC(N(C(=O)c2ccc(Cl)cc2)c2ccccc2)C1` (stereo not drawn) [Example 15, 1-methyl-3-[N-phenyl-(4-chlorobenzamido)]pyrrolidine fumarate]: the ED50 in assay [1] worked out at 0.6 mg/kg; with mice it was 5.2 mg/kg.
As to `CCC(=O)N(c1ccccc1)C1CCN(CCOc2ccccc2)C1` (stereo not drawn) [Example 17, 1-(2-phenoxyethyl)-3-(N-phenylpropionamido)pyrrolidine hydrochloride], in the assay with mice, the ED50 worked out at 14.2 mg/kg.
Turning to `CCC(=O)N(c1ccccc1)C1CCN(CCOc2ccccc2OC)C1` (stereo not drawn) [Example 18, 1-[2-(2-methoxyphenoxy)ethyl]-3-(N-phenylpropionamido)-pyrrolidine], the 50% effective dose (ED50) in the assay with mice was 3.4 mg/kg.
Regarding `CN1CCC(N(C(=O)c2ccccc2)c2ccccc2)C1` (stereo not drawn) [Example 29], the ED50 in assay [1] amounted to 1.7 mg/kg.
Consider `CN1CCC(N(C(=O)COc2ccc(Cl)cc2)c2ccccc2)C1` (stereo not drawn) [Example 31], for which, in the assay on mice, the ED50 amounted to 16.5 mg/kg.
In the case of `CN1CCC(N(C(=O)c2cccc(C(F)(F)F)c2)c2ccccc2)C1` (stereo not drawn) [Example 36], the median effective dose (ED50) in assay [1] turned out to be 2.8 mg/kg.
Turning to `CN1CCC(N(C(=O)c2cccc(Cl)c2)c2ccccc2)C1` (stereo not drawn) [Example 37], the ED50 in assay [1] was determined as 2.8 mg/kg.
Consider `CN1CCC(N(C(=O)c2ccc(F)cc2)c2ccccc2)C1` (stereo not drawn) [Example 38], for which the ED50 in assay [1] was 4.8 mg/kg.
On the same count and under the same terms, with `CN1CCC(N(C(=O)c2ccc(Br)cc2)c2ccccc2)C1` (stereo not drawn) [Example 40] the figure was 15.5 mg/kg; with `O=C(c1ccccc1)N(c1ccccc1)C1CCN(Cc2ccccc2)C1` (stereo not drawn) [Example 41], 4.9 mg/kg; with `O=C(c1ccccc1)N(c1ccccc1)C1CCNC1` (stereo not drawn) [Example 42], 2.4 mg/kg.
Take `CCN1CCC(N(C(=O)c2ccccc2)c2cccc(C(F)(F)F)c2)C1` (stereo not drawn) [Example 44]: the median effective dose (ED50) in assay [1] was found to be 2 mg/kg.
Same read-out and setting: under `CCN1CCC(N(C(=O)c2ccc(Cl)cc2)c2ccc(Cl)cc2)C1` (stereo not drawn) [Example 47] stands 4.9 mg/kg.
The same measure, in the same setting: under `CCN1CCC(N(C(=O)c2ccc(Cl)cc2)c2ccccc2)C1` (stereo not drawn) [Example 48] stands 0.6 mg/kg; under `CN(C)CCCN1c2ccccc2CCc2ccccc21` [Tofranil®, reference compound], 1.3 mg/kg.
